Laboratory results as given in US9656962B2, “Ring-contracted morphinans and the use thereof” (Purdue Pharma L.P., priority 2013, dated 2017).

Experiments:
[1] = biological target: recombinant human kappa opioid receptor (κ) (Homo sapiens (Human), UniProt P41145); test: κ-opioid receptor radioligand binding assay ([3H]-U69,593); conditions: binding affinity
Method: κ-Opioid Receptor Binding Assay Procedures: Membranes from HEK-293 cells, CHO cells or U-2 OS cells expressing the recombinant human kappa opioid receptor (κ) were prepared by lysing cells in ice cold hypotonic buffer (2.5 mM MgCl2, 50 mM HEPES, pH 7.4) (10 mL/10 cm dish) followed by homogenization with a tissue grinder/Teflon pestle. Membranes from a cell line naturally expressing kappa opioid receptor can also be used. Membranes were collected by centrifugation at 30,000×g for 15 min at 4° C. and pellets were resuspended in hypotonic buffer to a final concentration of 1-3 mg/mL. Protein concentrations were determined using the BioRad protein assay reagent with bovine serum albumen as standard. Aliquots of κ receptor membranes were stored at −80° C.
Radioligand dose displacement assays used 0.4 nM [^3H]-U69,593 (GE Healthcare, Piscataway, N.J.; 40 Ci/mmole) with 15 μg membrane protein (recombinant opioid receptor expressed in HEK 293 cells; in-house prep) in a final volume of 200 μl binding buffer (5% DMSO, 50 mM Trizma base, pH 7.4). Non-specific binding was determined in the presence of 10 μM unlabeled naloxone or U69,593. All reactions were performed in 96-well polypropylene plates for 1 hour at a temperature of about 25° C. Binding reactions were terminated by rapid filtration onto 96-well Unifilter GF/C filter plates (Perkin Elmer, Shelton, Conn.) presoaked in 0.5% polyethylenimine (Sigma). Harvesting was performed using a 96-well tissue harvester (Perkin Elmer, Shelton, Conn.) followed by five filtration washes with 200 μl ice-cold binding buffer. Filter plates were subsequently dried at 50° C. for 1-2 hours. Fifty μl/well scintillation cocktail (Perkin Elmer, Shelton, Conn.) was added and plates were counted in a Packard Top-Count for 1 min/well.

μ-opioid receptor [2] = biological target: T1, μ-opioid receptor (Homo sapiens (Human), UniProt P35372); test: μ-opioid receptor [35S]GTPγS functional assay, HEK-293 or CHO cells (Table 4); format: biochemical
In short: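 Membranes from HEK-293, CHO or U-2 OS cells (or commercial) expressing recombinant μ receptor; 0.20 nM [35S]GTPγS, 3 mM GDP, saponin, in 100 mM NaCl/10 mM MgCl2/20 mM HEPES pH 7.4.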

δ-opioid receptor = δ-opioid receptor (Homo sapiens (Human), UniProt P41143); test: δ-opioid receptor [35S]GTPγS functional assay (Table 4); format: biochemical
Method: δ-Opioid Receptor Functional Assay Procedures: Functional [^35S]GTPγS binding assays were conducted as follows. δ opioid receptor membrane solution was prepared by sequentially adding final concentrations of 0.026 μg/μl δ membrane protein (Perkin Elmer, Shelton, Conn.), 10 μg/mL saponin, 3 μM GDP and 0.20 nM [^35S]GTPγS to binding buffer (100 mM NaCl, 10 mM MgCl2, 20 mM HEPES, pH 7.4) on ice. The prepared membrane solution (190 μl/well) was transferred to 96-shallow well polypropylene plates containing 10 μl of 20× concentrated stock solutions of agonist prepared in DMSO. Plates were incubated for 30 min at a temperature of about 25° C. with shaking Reactions were terminated by rapid filtration onto 96-well Unifilter GF/B filter plates (Perkin Elmer, Shelton, Conn.) using a 96-well tissue harvester (Packard) and followed by three filtration washes with 200 μl ice-cold binding buffer (10 mM NaH2PO4, 10 mM Na2HPO4, pH 7.4). Filter plates were subsequently dried at 50° C. for 1-2 hours. Fifty μl/well scintillation cocktail (Perkin Elmer, Shelton, Conn.) was added and plates were counted in a Packard Top-count for 1 min/well.
δ GTP Emax (%) is the maximal effect elicited by a compound relative to the effect elicited by met-enkephalin.

μ-opioid receptor [3] = biological target: T1, μ-opioid receptor; test: μ-opioid receptor radioligand binding assay ([3H]-diprenorphine); conditions: binding affinity
Method: μ-Opioid Receptor Binding Assay Procedures: Radioligand dose-displacement binding assays for μ-opioid receptors used 0.3 nM [^3H]-diprenorphine (Perkin Elmer, Shelton, Conn.), with […] membrane protein/well in a final volume of 500 μl binding buffer (10 mM MgCl2, 1 mM EDTA, 5% DMSO, 50 mM HEPES, pH 7.4). Reactions were carried out in the absence or presence of increasing concentrations of unlabeled naloxone. All reactions were conducted in 96-deep well polypropylene plates for 2 hours at room temperature. Binding reactions were terminated by rapid filtration onto 96-well Unifilter GF/C filter plates (Perkin Elmer, Shelton, Conn.), presoaked in 0.5% polyethylenimine using a 96-well tissue harvester (Perkin Elmer, Shelton, Conn.) followed by performing three filtration washes with 500 μl of ice-cold binding buffer. Filter plates were subsequently dried at 50° C. for 2-3 hours. BetaScint scintillation cocktail (Perkin Elmer, Shelton, Conn.) was added (50 μl/well), and plates were counted using a Packard Top-Count for 1 min/well. The data were analyzed using the one-site competition curve fitting functions in GraphPad PRISM™ v. 3.0 or higher (San Diego, Calif.), or an in-house function for one-site competition curve-fitting.

Chain of δ-opioid receptor (P41143 whole entry, looked up): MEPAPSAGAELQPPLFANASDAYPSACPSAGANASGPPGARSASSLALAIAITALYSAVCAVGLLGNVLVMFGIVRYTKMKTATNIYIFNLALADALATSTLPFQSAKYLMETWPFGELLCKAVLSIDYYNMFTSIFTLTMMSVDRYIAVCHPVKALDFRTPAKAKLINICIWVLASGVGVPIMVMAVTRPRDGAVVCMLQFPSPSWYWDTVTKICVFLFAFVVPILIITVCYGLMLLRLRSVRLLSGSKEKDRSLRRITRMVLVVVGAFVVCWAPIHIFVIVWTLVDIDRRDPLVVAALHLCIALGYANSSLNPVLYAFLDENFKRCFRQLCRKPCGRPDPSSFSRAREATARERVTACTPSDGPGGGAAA

With `NC(=O)[C@@H]1C[C@]23CCN(CC4CC4)[C@H](Cc4ccc(O)cc42)[C@]3(O)C1` [Compound 31, (2R,3aS,4R,9bS)-12-(cyclopropylmethyl)-3a,8-dihydroxy-1,2,3,3a,4,5-hexahydro-4,9b-(epiminoethano)cyclopenta-[a]naphthalene-2-carboxamide] the Ki [1] was 0.84 ± 0.26 nM, the Emax (μ-opioid receptor [2]; relative to DAMGO) was 1% and the EC50 (μ-opioid receptor [2]; μ GTP, bound given in μM) was greater than 20 µM. It also gave an Emax (δ-opioid receptor; relative to met-enkephalin) of 32 ± 3.49%, an EC50 (δ-opioid receptor; δ GTP) of 0.0755 ± 0.0136 µM and a Ki (μ-opioid receptor [3]) of 10.2 ± 3.58 nM.
